Assay type in all cases: binding, E. coli
One assay concerns the target FhuA ΔC/Δ5L (Escherichia coli, UniProt P06971, DEL561-566/INS560[…], form not given). The following applies: for q (slope factor or transition steepness): calculated at the midpoint of the dissociation phase; for ΔRh: decrease in hydrodynamic radius as a result of detergent desolvation; for p (Hill coefficient): four-parameter Hill fit; for p (Hill coefficient) / Kd: pH 7.4, 24°C; for Kd: read-out: Kd (apparent dissociation constant), midpoint of dose-dependent dissociation phase; for ΔG: ΔG = RT ln Kd.

Another assay deals with FhuA ΔC/Δ7L_30N (Escherichia coli, UniProt P06971). The settings on record: for rmax: maximum anisotropy at detergent concentrations above the CMC; for rmax / rmin: pH 7.4; for rmin: minimum anisotropy, extrapolated for the lowest detergent concentration; for Dr fast: rotational diffusion coefficient under desolvation conditions; for Dr slow: rotational diffusion coefficient under solvation conditions.

The target in a further assay is OmpG (Escherichia coli, UniProt P76045, D245C). Description: biochemical. The following applies: for q (slope factor or transition steepness): calculated at the midpoint of the dissociation phase; for ΔRh: decrease in hydrodynamic radius as a result of detergent desolvation; for p (Hill coefficient): four-parameter Hill fit; for p (Hill coefficient) / rmax / rmin / Kd: 200 mM NaCl, 50 mM HEPES; for p (Hill coefficient) / Kd: pH 7.4, 24°C; for rmax: maximum anisotropy at detergent concentrations above the CMC; for rmax / rmin: pH 7.4; for Rh max: maximum hydrodynamic radius of the proteomicelle; for rmin: minimum anisotropy, extrapolated for the lowest detergent concentration; for Kd: read-out: Kd (apparent dissociation constant), midpoint of dose-dependent dissociation phase; for Dr fast: rotational diffusion coefficient under desolvation conditions; for Dr slow: rotational diffusion coefficient under solvation conditions; for ΔG: ΔG = RT ln Kd.

Another assay addresses FhuA ΔC/Δ5L_25N (Escherichia coli, UniProt P06971). The following applies: for rmax: maximum anisotropy at detergent concentrations above the CMC; for rmax / rmin: pH 7.4; for rmin: minimum anisotropy, extrapolated for the lowest detergent concentration; for Dr fast: rotational diffusion coefficient under desolvation conditions; for Dr slow: rotational diffusion coefficient under solvation conditions.

Where [1] appears, read: maximum anisotropy at detergent concentrations above the CMC, 200 mM NaCl, 50 mM HEPES, pH 7.4.
The mark [2] stands for this setting: maximum hydrodynamic radius of the proteomicelle.
Where [3] appears, read: minimum anisotropy, extrapolated for the lowest detergent concentration, 200 mM NaCl, 50 mM HEPES, pH 7.4.
Where [4] appears, read: rotational diffusion coefficient under desolvation conditions.
Where [5] appears, read: rotational diffusion coefficient under solvation conditions.
[6] abbreviates: anisotropy determined in 6 M Gdm-HCl.
The mark [7] stands for this setting: calculated at the midpoint of the dissociation phase.
Where [8] appears, read: decrease in hydrodynamic radius as a result of detergent desolvation.
Setting [9] is: four-parameter Hill fit, 200 mM NaCl, 50 mM HEPES, pH 7.4, 24°C.
Setting [10] is: read-out: Kd (apparent dissociation constant), midpoint of dose-dependent dissociation phase, 200 mM NaCl, 50 mM HEPES, pH 7.4, 24°C.

Several values for one entry are separate records, joined by “and”; a condition that tells them apart may be missing. Equal values may be shown once. Read-outs that look alike come from different tables or passages of the source.

The source of these data is article PMC5680101 (The journal of physical chemistry. B, 2017).

Chain of OmpG (P76045 22-301 D245C): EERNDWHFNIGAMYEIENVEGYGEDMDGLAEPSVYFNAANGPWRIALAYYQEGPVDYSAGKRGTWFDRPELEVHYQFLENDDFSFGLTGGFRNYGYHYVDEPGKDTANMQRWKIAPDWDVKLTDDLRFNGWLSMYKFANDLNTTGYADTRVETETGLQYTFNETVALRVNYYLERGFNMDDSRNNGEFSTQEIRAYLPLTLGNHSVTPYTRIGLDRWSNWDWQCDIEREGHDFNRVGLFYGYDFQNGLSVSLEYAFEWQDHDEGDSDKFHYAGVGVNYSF
Chain of FhuA ΔC/Δ5L (P06971 194-747, stated change not applied): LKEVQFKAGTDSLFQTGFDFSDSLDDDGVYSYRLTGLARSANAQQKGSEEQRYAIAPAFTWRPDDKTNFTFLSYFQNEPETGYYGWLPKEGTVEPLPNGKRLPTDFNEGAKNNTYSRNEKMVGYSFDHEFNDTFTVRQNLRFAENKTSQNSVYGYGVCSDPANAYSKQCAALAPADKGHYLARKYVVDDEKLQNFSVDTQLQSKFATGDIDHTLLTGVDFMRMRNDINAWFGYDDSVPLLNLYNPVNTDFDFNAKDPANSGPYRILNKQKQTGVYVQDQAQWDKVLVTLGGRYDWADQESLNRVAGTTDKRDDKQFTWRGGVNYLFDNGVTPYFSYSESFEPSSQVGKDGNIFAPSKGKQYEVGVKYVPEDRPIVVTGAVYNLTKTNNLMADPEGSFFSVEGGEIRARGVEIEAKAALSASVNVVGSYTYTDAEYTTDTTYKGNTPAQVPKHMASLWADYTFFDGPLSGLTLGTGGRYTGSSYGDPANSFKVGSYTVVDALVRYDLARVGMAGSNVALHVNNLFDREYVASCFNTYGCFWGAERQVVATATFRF
Chain of FhuA ΔC/Δ7L_30N (P06971 194-747, stated change not applied): as above
Chain of FhuA ΔC/Δ5L_25N (P06971 194-747, stated change not applied): as above

As for `CCCCCCCCO[C@@H]1O[C@H](CO)[C@@H](O)[C@H](O)[C@H]1O` [OG, n-octyl-β-D-glucoside], the anisotropy signal at FhuA ΔC/Δ5L (acidic FhuA proteins refolded in detergent) was ~ 0.3. The “q (slope factor or transition steepness)” value was 0.013 mM⁻¹ on FhuA ΔC/Δ5L and 0.017 mM⁻¹ on OmpG. Also, the figures for the ΔRh at FhuA ΔC/Δ5L and on OmpG were 0.80 ± 0.02 nm and 1.0 ± 0.1 nm, respectively. Also, the “p (Hill coefficient)” value came to 5.3 ± 0.9 on FhuA ΔC/Δ5L (200 mM NaCl, 50 mM HEPES) and 4.9 ± 0.5 at OmpG. For the same molecule, the rmax at FhuA ΔC/Δ5L (setting [1]) was 0.291 ± 0.002; at FhuA ΔC/Δ7L_30N (200 mM NaCl, 50 mM HEPES) it was roughly 0.17; at OmpG, 0.306 ± 0.001; on FhuA ΔC/Δ5L_25N (200 mM NaCl, 50 mM HEPES), roughly 0.17. The Rh max on FhuA ΔC/Δ5L (setting [2]) is 2.2 nm; at OmpG it was 2.4 nm. Further, the rmin is reported as 0.162 ± 0.002 on FhuA ΔC/Δ5L (setting [3]); roughly 0.15 on FhuA ΔC/Δ7L_30N (200 mM NaCl, 50 mM HEPES); 0.153 ± 0.002 at OmpG; roughly 0.15 on FhuA ΔC/Δ5L_25N (200 mM NaCl, 50 mM HEPES). The Kd at FhuA ΔC/Δ5L (200 mM NaCl, 50 mM HEPES) worked out at 13 ± 1 mM; at OmpG it was 11 ± 1 mM. Further, the Dr fast at FhuA ΔC/Δ5L (setting [4]) was 5.8 ± 0.1 10^7 s^−1; on FhuA ΔC/Δ7L_30N, ~6.6 10^7 s^−1; at OmpG, 6.4 ± 0.1 10^7 s^−1; at FhuA ΔC/Δ5L_25N, ~6.6 10^7 s^−1. In addition, the Dr slow was 1.5 ± 0.1 10^7 s^−1 on FhuA ΔC/Δ5L (setting [5]), ~5.2 10^7 s^−1 at FhuA ΔC/Δ7L_30N, 1.2 ± 0.1 10^7 s^−1 on OmpG and ~5.2 10^7 s^−1 on FhuA ΔC/Δ5L_25N. Further, the ΔG at FhuA ΔC/Δ5L was -2.5 ± 0.1 kcal/mol; at OmpG it was -2.7 ± 0.1 kcal/mol.
Regarding `C[C@H](CCC(=O)NCCC[N+](C)(C)CCCS(=O)(=O)[O-])[C@H]1CC[C@H]2[C@@H]3[C@H](O)C[C@@H]4C[C@H](O)CC[C@]4(C)[C@H]3C[C@H](O)[C@]12C` [CHAPS], at FhuA ΔC/Δ5L, the “q (slope factor or transition steepness)” value was 0.015 mM⁻¹. In addition, the ΔRh at FhuA ΔC/Δ5L worked out at 0.77 ± 0.18 nm. The “p (Hill coefficient)” value on FhuA ΔC/Δ5L (200 mM NaCl, 50 mM HEPES) is recorded as 1.7 ± 0.6; on OmpG it was roughly 1.6. For the same molecule, the rmax is given as 0.292 ± 0.004 at FhuA ΔC/Δ5L (setting [1]); roughly 0.17 on FhuA ΔC/Δ7L_30N (200 mM NaCl, 50 mM HEPES); 0.318 ± 0.002 at OmpG; roughly 0.17 on FhuA ΔC/Δ5L_25N (200 mM NaCl, 50 mM HEPES). Moreover, the figures for the Rh max on FhuA ΔC/Δ5L (setting [2]) and on OmpG were 2.2 nm and 2.5 nm, respectively. In addition, the rmin is on record as 0.172 ± 0.048 on FhuA ΔC/Δ5L (setting [3]); roughly 0.16 at FhuA ΔC/Δ7L_30N (200 mM NaCl, 50 mM HEPES); roughly 0.15 at FhuA ΔC/Δ5L_25N (200 mM NaCl, 50 mM HEPES). Also, the Kd at FhuA ΔC/Δ5L (200 mM NaCl, 50 mM HEPES) is 3.3 ± 1.8 mM; at OmpG it was less than 0.6 mM. Besides, the results for the Dr fast on FhuA ΔC/Δ5L (setting [4]), on FhuA ΔC/Δ7L_30N and on FhuA ΔC/Δ5L_25N were 1.5 ± 0.1 10^7 s^−1, ~6.0 10^7 s^−1 and ~6.6 10^7 s^−1, respectively. The ΔG at FhuA ΔC/Δ5L was -3.4 ± 0.5 kcal/mol. In addition, the Dr slow on FhuA ΔC/Δ7L_30N is given as ~5.2 10^7 s^−1; on OmpG, 1.0 ± 0.1 10^7 s^−1; at FhuA ΔC/Δ5L_25N it was ~5.2 10^7 s^−1.
On FhuA ΔC/Δ5L (setting [6]), `Cl.N=C(N)N` [Gdm-HCl, guanidinium hydrochloride] showed a rmax of roughly 0.16 and a rmin of roughly 0.16. In addition, the “basal (minimum) anisotropy readout, r1” value at FhuA ΔC/Δ5L (fully unfolded, most rotationally diffusive protein in 6 M Gdm-HCl) was 0.16 and ~ 0.16. Moreover, on FhuA ΔC/Δ5L (in 6 M Gdm-HCl), the Dr fast is on record as ~6.0 10^7 s^−1, the Dr slow was ~6.0 10^7 s^−1 and the Rh max stood at 1.4 nm.
As for `CCCCCCCCCCCCOS(=O)(=O)[O-].[Na+]` [SDS], the “minimum anisotropy value, r0” value on FhuA ΔC/Δ5L (in 40 mM SDS) is on record as ~ 0.16.
Take `OC[C@H]1O[C@H](O[C@H]2[C@H](O)[C@@H](O)[C@H](OCCCCC3CCCCC3)O[C@@H]2CO)[C@H](O)[C@@H](O)[C@@H]1O` [CYMAL-4, 4-cyclohexyl-1-Butyl-β-D-maltoside]: the “q (slope factor or transition steepness)” value was 0.38 mM⁻¹ at FhuA ΔC/Δ5L, 0.17 mM⁻¹ at FhuA ΔC/Δ7L_30N (setting [7]), 0.25 mM⁻¹ at OmpG and 0.28 mM⁻¹ on FhuA ΔC/Δ5L_25N (setting [7]). Also, the ΔRh on FhuA ΔC/Δ5L is 1.7 ± 0.1 nm; at FhuA ΔC/Δ7L_30N (setting [8]), 1.5 ± 0.2 nm; at OmpG it was 1.2 ± 0.1 nm; at FhuA ΔC/Δ5L_25N (setting [8]), 1.4 ± 0.1 nm. The “p (Hill coefficient)” value on FhuA ΔC/Δ5L (200 mM NaCl, 50 mM HEPES) was found to be 3.7 ± 0.1; on FhuA ΔC/Δ7L_30N (setting [9]), 2.3 ± 0.9; at OmpG it was 6.7 ± 0.1; on FhuA ΔC/Δ5L_25N (setting [9]) it was 5.2 ± 0.3. Besides, the rmax on FhuA ΔC/Δ5L (setting [1]) is given as 0.367 ± 0.001; at FhuA ΔC/Δ7L_30N (200 mM NaCl, 50 mM HEPES), 0.345 ± 0.004; on OmpG, 0.326 ± 0.001; on FhuA ΔC/Δ5L_25N (200 mM NaCl, 50 mM HEPES), 0.341 ± 0.001. Besides, the Rh max on FhuA ΔC/Δ5L (setting [2]) is listed as 3.6 nm; at FhuA ΔC/Δ7L_30N (setting [2]), 2.9 nm; at OmpG, 2.6 nm; on FhuA ΔC/Δ5L_25N (setting [2]), 2.9 nm. Moreover, the rmin on FhuA ΔC/Δ5L (setting [3]) was 0.242 ± 0.001; on FhuA ΔC/Δ7L_30N (200 mM NaCl, 50 mM HEPES), 0.168 ± 0.025; at OmpG, 0.163 ± 0.001; on FhuA ΔC/Δ5L_25N (200 mM NaCl, 50 mM HEPES), 0.166 ± 0.001. For the same molecule, the Kd on FhuA ΔC/Δ5L (200 mM NaCl, 50 mM HEPES) is 5.3 ± 0.1 mM; on FhuA ΔC/Δ7L_30N (setting [10]), 4.5 ± 1.1 mM; at OmpG it was 4.6 ± 0.1 mM; on FhuA ΔC/Δ5L_25N (setting [10]) it was 5.7 ± 0.1 mM. The Dr fast on FhuA ΔC/Δ5L (setting [4]) is on record as 2.6 ± 0.1 10^7 s^−1; at FhuA ΔC/Δ7L_30N, 5.5 ± 1.2 10^7 s^−1; at OmpG, 5.8 ± 0.1 10^7 s^−1; on FhuA ΔC/Δ5L_25N it was 5.6 ± 0.1 10^7 s^−1. In addition, the Dr slow is recorded as 0.36 ± 0.01 10^7 s^−1 at FhuA ΔC/Δ5L (setting [5]), 0.63 ± 0.05 10^7 s^−1 on FhuA ΔC/Δ7L_30N, 0.90 ± 0.01 10^7 s^−1 on OmpG and 0.69 ± 0.01 10^7 s^−1 at FhuA ΔC/Δ5L_25N. Moreover, the ΔG at FhuA ΔC/Δ5L is -3.1 ± 0.1 kcal/mol; on FhuA ΔC/Δ7L_30N (ΔG = RT ln Kd) it was -3.2 ± 0.1 kcal/mol; on OmpG it was -3.2 ± 0.1 kcal/mol; on FhuA ΔC/Δ5L_25N (ΔG = RT ln Kd), -3.1 ± 0.1 kcal/mol.
